Test results as given in ChEMBL document CHEMBL1201862, “PubChem BioAssay data set” (2004).
Calls of active or inactive are those of the source. Unless noted, the calls are words filed in the database; no cut-off is given here.

Assays:
[1] = viability of uninfected HEp-2 cells – cell-based, HTS, cytotoxicity control for RSV inhibitor project, dose response (AID 2410); format: functional; conditions: human respiratory syncytial virus
[2] = Trypanosoma cruzi growth suppression in host cells – NIH3T3 host cells, beta-gal luminescence, confirmation (AID 2044); format: functional, cell-based;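 further: intracellular parasites grown in NIH/3T3 mouse fibroblasts as host cells; luminescent beta-galactosidase reporter signal from transgenic T. cruzi replicating inside host cells; inhibitors lower the luminescence signal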
NADPH oxidase 1 = NADPH oxidase 1 (Homo sapiens, UniProt Q9Y5S8); assay: Luminescence-based cell-based dose response assay to identify inhibitors of NADPH oxidase 1 (NOX1).; format: functional
[3] = NIH3T3 cell viability loss – ATP luminescence, mouse fibroblasts, counter-screen, dose response (AID 2010); format: functional, cell-based;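 further: cells exposed to compound for about 90 hours before reading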
[4] = biological target: Sodium-dependent noradrenaline transporter (Homo sapiens, UniProt P23975); assay: Late-stage radioligand binding dose response assay to identify inhibitors of NADPH oxidase 1 (NOX1): PDSP screen Ki. [Related pubchem assays (depositor defined):AID1792, AID1796, AID1823, AID2532, AID2538, AID2539, AID2541, AID2545, AID2556, AID2664, AID2752, AID2773, AID434992, AID434993, AID434997, AID435002, AID435009, AID435013, AID463255 …
[5] = biological target: Alpha-2A adrenergic receptor (Homo sapiens, UniProt P08913); assay: as above
Sequence of Alpha-2A adrenergic receptor (P08913 whole entry): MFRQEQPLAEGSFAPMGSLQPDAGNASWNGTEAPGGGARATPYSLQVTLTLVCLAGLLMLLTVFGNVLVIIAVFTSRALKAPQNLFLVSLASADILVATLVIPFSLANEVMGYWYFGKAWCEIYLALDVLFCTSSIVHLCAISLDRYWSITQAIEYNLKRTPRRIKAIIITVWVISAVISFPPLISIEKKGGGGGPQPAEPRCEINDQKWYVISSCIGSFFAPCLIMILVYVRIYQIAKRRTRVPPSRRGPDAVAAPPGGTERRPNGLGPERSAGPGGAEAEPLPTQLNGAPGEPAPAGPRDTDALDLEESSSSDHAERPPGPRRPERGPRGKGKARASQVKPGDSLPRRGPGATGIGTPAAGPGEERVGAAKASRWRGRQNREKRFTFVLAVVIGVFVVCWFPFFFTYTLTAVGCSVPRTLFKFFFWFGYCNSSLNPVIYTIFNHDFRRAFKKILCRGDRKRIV

[6] = biological target: Glutamate receptor ionotropic, kainate 5 (Rattus norvegicus, UniProt Q63273); assay: as above
Sequence of Glutamate receptor ionotropic, kainate 5 (Q63273 whole entry): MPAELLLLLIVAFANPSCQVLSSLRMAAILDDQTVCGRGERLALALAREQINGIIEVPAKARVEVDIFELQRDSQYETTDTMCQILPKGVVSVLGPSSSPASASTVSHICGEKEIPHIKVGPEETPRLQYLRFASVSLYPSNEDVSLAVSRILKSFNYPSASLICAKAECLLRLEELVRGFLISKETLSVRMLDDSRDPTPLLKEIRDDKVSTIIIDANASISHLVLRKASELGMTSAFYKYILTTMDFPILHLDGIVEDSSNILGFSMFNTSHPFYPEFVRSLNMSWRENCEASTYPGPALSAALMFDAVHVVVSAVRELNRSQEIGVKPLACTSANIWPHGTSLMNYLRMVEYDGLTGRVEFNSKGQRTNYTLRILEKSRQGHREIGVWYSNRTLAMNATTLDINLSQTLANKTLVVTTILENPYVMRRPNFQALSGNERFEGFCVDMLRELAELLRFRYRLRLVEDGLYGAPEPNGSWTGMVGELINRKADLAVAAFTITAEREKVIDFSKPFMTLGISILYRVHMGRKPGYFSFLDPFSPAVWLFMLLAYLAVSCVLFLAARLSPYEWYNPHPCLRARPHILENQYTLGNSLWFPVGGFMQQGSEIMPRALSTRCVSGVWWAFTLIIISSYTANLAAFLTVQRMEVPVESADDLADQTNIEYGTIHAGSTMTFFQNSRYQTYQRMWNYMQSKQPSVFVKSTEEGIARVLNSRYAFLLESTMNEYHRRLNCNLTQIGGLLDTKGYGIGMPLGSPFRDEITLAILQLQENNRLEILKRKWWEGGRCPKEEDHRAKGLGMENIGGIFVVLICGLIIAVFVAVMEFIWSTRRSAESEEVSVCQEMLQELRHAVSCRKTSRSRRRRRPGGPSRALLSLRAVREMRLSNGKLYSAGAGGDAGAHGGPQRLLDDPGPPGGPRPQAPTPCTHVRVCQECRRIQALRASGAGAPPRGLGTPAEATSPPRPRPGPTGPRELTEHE

[7] = biological target: Sodium-dependent serotonin transporter (Homo sapiens, UniProt P31645); assay: as above
[8] = biological target: Muscarinic acetylcholine receptor M4 (Homo sapiens, UniProt P08173); assay: as above
[9] = biological target: 5-hydroxytryptamine receptor 2B (Homo sapiens, UniProt P41595); assay: as above
[10] = biological target: Alpha-2C adrenergic receptor (Homo sapiens, UniProt P18825); assay: as above
Sequence of Alpha-2C adrenergic receptor (P18825 whole entry): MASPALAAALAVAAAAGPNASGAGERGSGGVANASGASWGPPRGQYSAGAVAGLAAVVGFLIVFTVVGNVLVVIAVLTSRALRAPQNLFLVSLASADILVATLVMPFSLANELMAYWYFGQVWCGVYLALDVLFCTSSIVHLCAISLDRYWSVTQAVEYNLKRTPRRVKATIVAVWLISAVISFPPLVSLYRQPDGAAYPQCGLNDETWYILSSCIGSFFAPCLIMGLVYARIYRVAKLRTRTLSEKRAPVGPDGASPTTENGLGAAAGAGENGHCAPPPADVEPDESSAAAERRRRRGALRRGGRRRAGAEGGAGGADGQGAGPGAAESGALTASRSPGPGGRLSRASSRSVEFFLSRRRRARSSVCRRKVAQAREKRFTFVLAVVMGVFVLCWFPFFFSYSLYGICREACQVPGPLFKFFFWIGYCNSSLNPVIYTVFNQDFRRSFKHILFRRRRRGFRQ

[11] = biological target: Alpha-2B adrenergic receptor (Homo sapiens, UniProt P18089); assay: as above
Sequence of Alpha-2B adrenergic receptor (P18089 whole entry): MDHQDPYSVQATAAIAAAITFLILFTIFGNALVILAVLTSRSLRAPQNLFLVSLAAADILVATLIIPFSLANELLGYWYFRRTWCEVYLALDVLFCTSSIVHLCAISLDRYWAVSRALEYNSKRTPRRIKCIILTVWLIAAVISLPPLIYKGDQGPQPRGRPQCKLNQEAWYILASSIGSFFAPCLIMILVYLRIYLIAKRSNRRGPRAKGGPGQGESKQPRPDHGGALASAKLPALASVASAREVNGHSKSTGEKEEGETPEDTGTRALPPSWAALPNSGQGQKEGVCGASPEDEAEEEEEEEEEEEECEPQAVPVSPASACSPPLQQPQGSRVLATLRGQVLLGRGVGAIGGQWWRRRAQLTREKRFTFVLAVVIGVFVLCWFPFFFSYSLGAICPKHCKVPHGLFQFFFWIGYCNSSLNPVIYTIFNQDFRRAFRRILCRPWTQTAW

D(3) dopamine receptor = D(3) dopamine receptor (Homo sapiens, UniProt P35462); assay: as above
[12] = biological target: Muscarinic acetylcholine receptor M3 (Homo sapiens, UniProt P20309); assay: as above
Sequence of Muscarinic acetylcholine receptor M3 (P20309 whole entry): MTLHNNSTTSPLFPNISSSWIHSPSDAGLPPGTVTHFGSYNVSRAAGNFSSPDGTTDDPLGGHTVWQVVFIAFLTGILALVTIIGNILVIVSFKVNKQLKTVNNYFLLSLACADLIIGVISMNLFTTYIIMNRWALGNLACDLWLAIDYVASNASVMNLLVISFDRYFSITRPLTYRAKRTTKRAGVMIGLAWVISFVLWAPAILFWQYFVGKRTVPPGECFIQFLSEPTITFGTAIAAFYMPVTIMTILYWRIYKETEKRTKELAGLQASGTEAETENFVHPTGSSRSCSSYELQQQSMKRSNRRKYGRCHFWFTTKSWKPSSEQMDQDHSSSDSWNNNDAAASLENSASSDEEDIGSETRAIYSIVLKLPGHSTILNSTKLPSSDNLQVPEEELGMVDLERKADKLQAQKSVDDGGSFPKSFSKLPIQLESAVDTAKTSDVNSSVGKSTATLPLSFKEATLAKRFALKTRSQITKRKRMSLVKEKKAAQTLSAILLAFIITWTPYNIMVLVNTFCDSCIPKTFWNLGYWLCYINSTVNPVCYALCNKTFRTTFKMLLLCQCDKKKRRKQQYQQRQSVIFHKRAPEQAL

[13] = biological target: 5-hydroxytryptamine receptor 4 (Homo sapiens, UniProt Q13639); assay: as above
Oxytocin receptor = Oxytocin receptor (Homo sapiens, UniProt P30559); assay: as above
[14] = biological target: Muscarinic acetylcholine receptor M5 (Homo sapiens, UniProt P08912); assay: as above
Sequence of Muscarinic acetylcholine receptor M5 (P08912 whole entry): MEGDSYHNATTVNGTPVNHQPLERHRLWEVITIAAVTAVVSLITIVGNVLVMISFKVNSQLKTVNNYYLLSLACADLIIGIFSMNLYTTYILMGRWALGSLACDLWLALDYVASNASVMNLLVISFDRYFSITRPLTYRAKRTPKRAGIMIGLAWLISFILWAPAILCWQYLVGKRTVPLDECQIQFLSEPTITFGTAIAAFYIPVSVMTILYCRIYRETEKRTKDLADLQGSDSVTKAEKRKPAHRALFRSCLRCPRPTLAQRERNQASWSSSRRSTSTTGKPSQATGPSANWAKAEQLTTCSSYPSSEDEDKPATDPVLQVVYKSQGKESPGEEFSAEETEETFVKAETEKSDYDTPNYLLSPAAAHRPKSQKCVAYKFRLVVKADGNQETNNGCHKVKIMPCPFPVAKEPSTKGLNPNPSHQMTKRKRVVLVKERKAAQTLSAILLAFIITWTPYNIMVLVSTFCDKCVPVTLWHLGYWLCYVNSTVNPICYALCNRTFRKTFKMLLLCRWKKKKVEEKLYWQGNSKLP

[15] = biological target: Sigma non-opioid intracellular receptor 1 (Homo sapiens, UniProt Q99720); assay: as above
[16] = biological target: 5-hydroxytryptamine receptor 2C (Homo sapiens, UniProt P28335); assay: as above
Bcl-2-like protein 10 = Bcl-2-like protein 10 (Homo sapiens, UniProt Q9HD36); assay: Bcl-B/TR3 peptide binding disruption – biochemical, fluorescence polarization, FITC-TR3 peptide, selectivity assay for Bfl-1 inhibitor project, primary screen (AID 748);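 further: fluorescence polarization from a fluorescein-labelled TR3 peptide binding purified Bcl-B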
[17] = biological target: DNA dC->dU-editing enzyme APOBEC-3A (Homo sapiens, UniProt P31941); assay: Dose Response confirmation of small molecule APOBEC3A DNA Deaminase Inhibitors via a fluorescence-based single-stranded DNA deaminase assay. [Related pubchem assays (depositor defined):AID493011, AID493024]; format: functional
[18] = biological target: DNA dC->dU-editing enzyme APOBEC-3G (Homo sapiens, UniProt Q9HC16); format: functional;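 further: Dose-response counterscreen measuring inhibition of APOBEC3G DNA deaminase activity, run while confirming APOBEC3A inhibitors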
[19] = biological target: Eukaryotic translation initiation factor 4H (Homo sapiens, UniProt Q15056); assay: inhibitors of translation initiation factor eIF4H – SAR follow-up (AID 435011); format: functional
[20] = biological target: Polyadenylate-binding protein 1 (Homo sapiens, UniProt P11940); assay: PABP inhibition in translation initiation, SAR follow-up (AID 435018); format: functional
[21] = biological target: T1, Carboxy-terminal domain RNA polymerase II polypeptide A small phosphatase 1 (Homo sapiens, UniProt Q9GZU7); assay: CTDSP1 inhibitors, concentration-response, biochemical, absorbance readout, ultra-high-throughput screen actives (AID 540297); format: functional
T1 sequence (Q9GZU7 whole entry): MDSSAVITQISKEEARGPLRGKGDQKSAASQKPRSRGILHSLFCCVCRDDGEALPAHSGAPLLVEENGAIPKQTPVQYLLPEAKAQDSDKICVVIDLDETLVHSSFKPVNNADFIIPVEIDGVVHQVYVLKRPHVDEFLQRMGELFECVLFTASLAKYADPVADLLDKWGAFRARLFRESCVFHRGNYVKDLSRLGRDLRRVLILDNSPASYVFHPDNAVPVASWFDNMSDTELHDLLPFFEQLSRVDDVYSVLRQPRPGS

[22] = biological target: T2, Long-chain-fatty-acid--AMP ligase FadD28 (Mycobacterium tuberculosis, UniProt P9WQ59); assay: Fluorescence polarization aasay to screen for inhibitors that compete for the binding of FadD28 to a bisubstrate Measured in Biochemical System Using Plate Reader - 2147-01_Inhibitor_Dose_CherryPick_Activity.; format: functional, Mycobacterium tuberculosis H37Rv
T2 sequence (P9WQ59 whole entry): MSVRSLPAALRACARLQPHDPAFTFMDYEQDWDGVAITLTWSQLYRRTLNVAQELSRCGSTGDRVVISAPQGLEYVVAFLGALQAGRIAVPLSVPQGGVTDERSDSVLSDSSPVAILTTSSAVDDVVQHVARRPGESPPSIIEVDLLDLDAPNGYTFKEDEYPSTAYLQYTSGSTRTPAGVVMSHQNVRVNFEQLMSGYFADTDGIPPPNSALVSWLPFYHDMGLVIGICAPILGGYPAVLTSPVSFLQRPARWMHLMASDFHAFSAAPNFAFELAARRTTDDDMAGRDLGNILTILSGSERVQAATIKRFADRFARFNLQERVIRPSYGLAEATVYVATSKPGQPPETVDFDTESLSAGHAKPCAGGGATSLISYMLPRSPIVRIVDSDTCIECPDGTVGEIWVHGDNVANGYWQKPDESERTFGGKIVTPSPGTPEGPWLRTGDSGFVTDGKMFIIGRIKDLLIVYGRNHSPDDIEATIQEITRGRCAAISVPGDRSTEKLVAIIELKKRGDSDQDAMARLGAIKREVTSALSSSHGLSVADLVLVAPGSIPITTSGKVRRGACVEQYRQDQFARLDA

Saccharomyces cerevisiae = assay: S. cerevisiae Caspase-1/ASC signal blockers IC50, NALP1 inhibitor project selectivity test (AID 488863); format: functional, organism-based
[23] = biological target: NACHT, LRR and PYD domains-containing protein 1 (Homo sapiens, UniProt Q9C000); assay: NALP1 inhibitors in yeast, dose response, luminescent (AID 488860); format: functional
Sequence of NACHT, LRR and PYD domains-containing protein 1 (Q9C000 1-1212 limits assumed): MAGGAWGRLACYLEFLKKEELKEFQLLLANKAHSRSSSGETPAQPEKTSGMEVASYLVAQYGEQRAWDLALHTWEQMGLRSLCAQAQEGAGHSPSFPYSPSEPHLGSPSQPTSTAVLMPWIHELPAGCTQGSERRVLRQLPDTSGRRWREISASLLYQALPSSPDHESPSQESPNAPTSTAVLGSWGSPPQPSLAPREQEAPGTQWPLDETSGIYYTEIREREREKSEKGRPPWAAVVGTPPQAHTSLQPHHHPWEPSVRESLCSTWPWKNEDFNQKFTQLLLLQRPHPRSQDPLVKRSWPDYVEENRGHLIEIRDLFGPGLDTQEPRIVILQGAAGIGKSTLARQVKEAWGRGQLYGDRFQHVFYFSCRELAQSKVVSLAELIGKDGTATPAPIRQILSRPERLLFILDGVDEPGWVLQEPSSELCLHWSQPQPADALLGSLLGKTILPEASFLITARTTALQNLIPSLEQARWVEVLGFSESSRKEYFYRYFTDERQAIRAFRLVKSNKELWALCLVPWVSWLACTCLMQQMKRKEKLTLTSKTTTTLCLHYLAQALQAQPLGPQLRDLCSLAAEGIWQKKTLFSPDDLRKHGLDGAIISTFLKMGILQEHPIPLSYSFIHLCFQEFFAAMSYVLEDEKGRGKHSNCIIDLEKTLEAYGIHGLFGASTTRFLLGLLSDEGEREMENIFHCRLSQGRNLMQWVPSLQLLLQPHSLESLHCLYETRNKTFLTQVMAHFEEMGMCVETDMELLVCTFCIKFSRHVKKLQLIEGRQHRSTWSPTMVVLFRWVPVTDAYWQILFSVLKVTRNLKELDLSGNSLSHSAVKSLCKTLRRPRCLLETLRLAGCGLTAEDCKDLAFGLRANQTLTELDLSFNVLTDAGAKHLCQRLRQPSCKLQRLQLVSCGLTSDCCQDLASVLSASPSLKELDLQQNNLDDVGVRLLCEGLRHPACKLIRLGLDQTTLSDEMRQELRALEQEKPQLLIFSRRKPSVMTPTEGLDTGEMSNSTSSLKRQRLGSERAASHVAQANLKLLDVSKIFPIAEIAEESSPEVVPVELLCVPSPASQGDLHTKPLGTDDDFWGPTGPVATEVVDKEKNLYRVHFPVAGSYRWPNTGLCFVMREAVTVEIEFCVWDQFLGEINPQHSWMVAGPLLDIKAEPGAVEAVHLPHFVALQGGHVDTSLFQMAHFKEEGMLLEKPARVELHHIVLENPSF
Sequence of NACHT, LRR and PYD domains-containing protein 1 (Q9C000 1213-1473 limits assumed): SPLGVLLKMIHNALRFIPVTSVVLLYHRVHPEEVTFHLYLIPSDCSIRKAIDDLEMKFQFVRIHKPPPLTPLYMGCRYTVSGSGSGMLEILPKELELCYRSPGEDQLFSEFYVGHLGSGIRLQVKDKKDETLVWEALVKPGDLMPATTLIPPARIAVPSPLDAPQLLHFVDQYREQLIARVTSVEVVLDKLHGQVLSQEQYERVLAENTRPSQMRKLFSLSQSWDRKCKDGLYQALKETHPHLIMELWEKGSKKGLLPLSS

[24] = biological target: Cystic fibrosis transmembrane conductance regulator/Golgi-associated PDZ and coiled-coil motif-containing protein (Homo sapiens, UniProt P13569+Q9HD26); assay: potency against CAL PDZ-peptide interaction – biochemical, fluorescence polarization, Cerulean-tagged CAL PDZ, cherry-picks, dose response (AID 504773)
[25] = biological target: T3, Tyrosine-protein phosphatase non-receptor type 7 (Homo sapiens, UniProt P35236); assay: redox-active compounds inhibiting HePTP phosphatase – biochemical, fluorescence, mechanism study (AID 2068); format: functional
T3 sequence (P35236 whole entry): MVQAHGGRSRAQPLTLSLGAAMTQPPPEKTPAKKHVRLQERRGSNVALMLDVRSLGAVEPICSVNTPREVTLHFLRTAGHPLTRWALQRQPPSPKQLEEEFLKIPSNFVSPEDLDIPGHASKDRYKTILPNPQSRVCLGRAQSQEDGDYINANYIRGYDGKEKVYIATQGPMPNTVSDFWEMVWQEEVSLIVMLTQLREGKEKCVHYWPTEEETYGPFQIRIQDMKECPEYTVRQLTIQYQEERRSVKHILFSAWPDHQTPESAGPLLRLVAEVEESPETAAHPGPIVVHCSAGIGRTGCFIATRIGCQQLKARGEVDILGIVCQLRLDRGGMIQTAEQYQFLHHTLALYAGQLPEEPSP

[26] = biological target: Voltage-gated N-type calcium channel alpha-1B subunit/Amyloid beta A4 precursor protein-binding family A member 1 (Homo sapiens, UniProt Q00975+Q02410); assay: disruptors of Mint-PDZ/N-type channel peptide interaction – biochemical, HTRF, SAR follow-up (AID 2489); format: functional
[27] = blockers of SFLLRN-triggered platelet ATP secretion – cell-based, human platelets, luminescence, dry powder, dose response (AID 493100); format: functional
[28] = biological target: T4, Ubiquitin-conjugating enzyme E2 N (Homo sapiens, UniProt P61088); format: functional;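 further: Dose-response confirmation in a TR-FRET assay detecting UBC13-driven polyubiquitin chain formation, inhibition measured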
T4 sequence (P61088 whole entry): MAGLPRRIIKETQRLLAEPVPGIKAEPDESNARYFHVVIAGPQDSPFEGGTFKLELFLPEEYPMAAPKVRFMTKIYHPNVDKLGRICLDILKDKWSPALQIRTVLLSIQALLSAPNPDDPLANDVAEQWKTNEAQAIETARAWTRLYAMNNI

[29] = Cytotoxicity screening for potential Inhibitors of Bacterial Capsule Biogenesis. [Related pubchem assays (depositor defined):AID488970]; format: functional
INS1 = assay: INS-1E survival protection against cytokine death – cell-based, luminescence, retest, dose response (AID 449756); format: functional; conditions: Rattus norvegicus;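 further: cell death triggered by IL-1 beta plus TNF-alpha plus IFN-gamma mixture; protective hits raise ATP signal compared with cytokine alone wells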
[30] = biological target: Intestinal-type alkaline phosphatase (Homo sapiens, UniProt P09923); assay: Dose Response confirmation of uHTS hits from a small molecule inhibitors of human intestinal alkaline phosphatase via a luminescent assay. [Related pubchem assays (depositor defined):AID2544, AID2574]; format: functional
[31] = luciferase reporter signal suppression in cells – H4 neuroglioma cells, luminescence, dose response (AID 1990); format: functional, cell-based
BJ [32] = assay: BJ-TERT fibroblast viability loss – cell-based, RAS-independent, luminescence, dose response (AID 1933); format: functional; conditions: Homo sapiens
[33] = Luminescence Cell-Based Dose Response HTS to Identify Inhibitors of 5'UTR Stem-Loop Driven Prion Protein mRNA Translation in H4 Neuroglioblastoma Cells. [Related pubchem assays: 1827 (Project Summary), 1813 (Primary HTS)]; format: functional
[34] = alpha-synuclein stem-loop luciferase translation blockers – H4 neuroglioma cells, luminescence, confirmation (AID 1988); format: functional, cell-based
BJ [35] = assay: cells; format: functional, cell-based; conditions: Homo sapiens
J774.A1 = assay: Confirmation of image-based Screening Assay for Inhibitors of Phagocytosis. [Related pubchem assays (depositor defined):AID1029, AID1643]; format: functional, cell-based; conditions: Mus musculus
BJ [36] = assay: BJ-TERT-LT-ST fibroblast viability loss – cell-based, RAS-independent, luminescence, dose response (AID 1935); format: functional; conditions: Homo sapiens;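 further: BJ fibroblasts immortalized with TERT plus LT and ST oncogenes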
[37] = DRD fibroblast viability loss – cell-based, non-viral oncogenic, luminescence, dose response (AID 1934); format: functional; conditions: Homo sapiens
[38] = HEK-293T viability loss after treatment – luminescence, T-cell screen hits, cytotoxicity control for TCR NF-kB inhibitor project, dose response (AID 489026); format: functional, cell-based;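 further: cells exposed to compound about 14 hours before the viability readout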

In the case of `CN1c2ccccc2Sc2cc(N)ccc21`, the CC50 [1] is reported as 27.1 µM (active), the EC50 [2] is reported as 1.27 µM (active) and the IC50 (NADPH oxidase 1) is reported as 0.044 µM (active). The EC50 [3] was > 60 µM (not active), the Ki [4] was 3.94 µM (active) and the Ki [5] was 6.92 µM (active). The Ki [6] was > 10 µM (inactive), the Ki [7] was 10 µM (active) and the Ki [8] was > 10 µM (inactive). For the same compound, the Ki [9] was 0.556 µM (active), the Ki [10] was 5.76 µM (active) and the Ki [11] was 2.72 µM (active). For the same compound, the Ki (D(3) dopamine receptor) was 9.06 µM (active), the Ki [12] was 10 µM (inactive) and the Ki [13] was > 10 µM (inactive). The Ki (Oxytocin receptor) was > 10 µM (inactive), the Ki [14] was > 10 µM (inactive) and the Ki [15] was > 10 µM (inactive). The Ki [16] was 2.96 µM (active).

For `CCC1=[N+](C)CCn2c(C)ccc21`, the IC50 (Bcl-2-like protein 10) was > 100 µM (inactive), the IC50 [17] was 1.51 µM (active) and the IC50 [18] was 1.32 µM (active).

For `Cc1cccc(NC(=O)CN2C(=O)N/C(=C\c3ccccc3OCc3ccc(C(=O)O)cc3)C2=O)c1`, the IC50 [19] was 17.5 µM (active), the IC50 [20] was 77.6 µM (active) and the IC50 [21] was 6.07 µM (active). The AC50 [22] was 9.77 µM (active).

For `CCCCC(=O)Nc1ccc(C(=O)NNC(=S)NC(=O)c2ccco2)cc1`, the IC50 (Saccharomyces cerevisiae) was 18.8 µM (active) and the IC50 [23] was 25.7 µM (active).

In the case of `O=C1OC(c2ccccc2)(c2ccccc2)c2ccccc21`, the AC50 [24] is reported as 17.3 µM (active).

In the case of `O=C(Nc1ccc2nc(-c3ccco3)c(-c3ccco3)nc2c1)N1CCOCC1`, the IC50 [25] is reported as 0.693 µM (active) and the IC50 [26] is reported as 22.3 µM (active).

With `CCCC(=O)Nc1cccc(NC(=O)c2ccccc2C)c1` the AC50 [27] was 5.5 µM (active).

With `N=C(N)N/N=C/c1ccc(OCc2ccccc2)cc1` the EC50 [2] was 0.92 µM (active), the EC50 [3] was > 60 µM (not active) and the IC50 [28] was > 20 µM (inactive). For the same compound, the CC50 [29] was 10.4 µM (active) and the AC50 (INS1) was 6.57 µM (active).

For `Cc1[nH]n(-c2nc(-c3ccccc3F)cc(=O)[nH]2)c(=O)c1CCO`, the IC50 [30] was 1.07 µM (active).

For `CCOC(=O)Nc1nc(-c2ccccc2)c(C(=O)c2ccccc2)s1`, the EC50 [31] was 1.41 µM (active), the EC50 (BJ [32]) was 7.17 µM (inconclusive) and the EC50 [33] was 1.38 µM (active). For the same compound, the EC50 [34] was 0.198 µM (active), the EC50 (BJ [35]) was 17.1 µM (inconclusive) and the IC50 (J774.A1) was 0.215 µM (active). The EC50 (BJ [36]) was 4.12 µM (inconclusive), the EC50 [37] was 12.3 µM (inconclusive) and the IC50 [38] was 68.3 µM (inactive).
